According to the NIST ThermoML archive (doi:10.1021/je700037z):
± gives the expanded uncertainty stated by the source.

Details: 101.33 kPa, Liquid, Pycnometric method

With `CCn1cc[n+](C)c1.F[B-](F)(F)F` [1-ethyl-3-methylimidazolium tetrafluoroborate] the mass density (285 K) was 1290 ± 7 kg/m3, the mass density (290 K) was 1286 ± 7 kg/m3 and the mass density (295 K) was 1282 ± 7 kg/m3. The mass density (300 K) was 1279 ± 7 kg/m3 and the mass density (305 K) was 1275 ± 7 kg/m3.
